Reference: patent publication US20050026897A1, “Trinuclear copper-based compound and ligand for nucleic acid scission and anticancer treatment” (priority 2001, published 2005)

Assays:
[1] = test system: hairpin forming oligonucleotide (OD1); test: Strand scission of 5'-32P-labeled hairpin oligonucleotide OD1 with MPA, PAGE / phosphorimage analysis; assay type: biochemical
Description: (§1) FIG. 3 is an autoradiogram of a 20% polyacrylamide denaturing gel (7 M urea) showing cleavage products of 100 nM 5′-^32P-labeled OD1 incubated with a compound of formula I and MPA (3-mercaptopropionic acid) for 15 minutes in sodium phosphate (10 mM, pH 7.5) at ambient temperature. Lane 1 depicts OD1 alone. Lane 2 depicts OD1 with 5 μM formula I. Lane 3 depicts OD1 with 5 mM MPA. Lane 4-6 depict 0.5, 1, and 5 μM formula I with 5 mM MPA and OD1. Lane 7 depicts OD1+OD2 with 10 μM formula 1 and 5 mM MPA. Lane 8 depicts A+G sequencing lane.
A hairpin forming oligonucleotide (OD1) (SEQ ID NO. 2) (see FIG. 1) was treated with a compound of formula I in the presence of excess MPA and it was then quenched with dithiocarbamic acid. […] Selectivity was reduced to 66% if the concentration of the compound of formula I is increased 10-fold to 5 μm, due in part to an increase in reactivity primarily at A9, T10 and T21 (FIG. 3, lane 6). In the absence of either the thiol or the compound of formula I, no cleavage of OD1 was observed (FIG. 3, lanes 2 and 3). In addition, there was no enhancement of reaction at A9, T10 or T21. […] The persistent specificity for A22 when OD2 is present was likely due to residual hairpin formed in competition with duplex DNA. […]

OD1+OD2 duplex DNA = test: Strand scission of duplex-forming OD1+OD2 with MPA, PAGE; assay type: biochemical
Description: as §1
A hairpin forming oligonucleotide (OD1) (SEQ ID NO. 2) (see FIG. 1) was treated with a compound of formula I in the presence of excess MPA and it was then quenched with dithiocarbamic acid. […] Selectivity was reduced to 66% if the concentration of the compound of formula I is increased 10-fold to 5 μm, due in part to an increase in reactivity primarily at A9, T10 and T21 (FIG. 3, lane 6). In the absence of either the thiol or the compound of formula I, no cleavage of OD1 was observed (FIG. 3, lanes 2 and 3). In addition, there was no enhancement of reaction at A9, T10 or T21. […] The persistent specificity for A22 when OD2 is present was likely due to residual hairpin formed in competition with duplex DNA.

## [Cu+2].c1cnc2c(c1)ccc1cccnc12.c1cnc2c(c1)ccc1cccnc12 [Cu(OP)2^2+, bis(1,10-phenanthroline)copper]
[1]
  A22 as target of reaction: not a major target
OD1+OD2 duplex DNA
  A22 as target of reaction: not a major target
